Where only a bound is given, the exact number is not on record here.

The test has as its system leukemia L-1210. Kind of test: Antitumour activity in mice inoculated intraperitoneally with leukemia L-1210 (survival, T/C). It is filed as in vivo, CDF-1 male mice. The following applies: for response vs control in vivo at 100 mg/kg / response vs control in vivo at 200 mg/kg / response vs control in vivo at 400 mg/kg: Mus musculus, L1210, ip, directly after injection of L-1210, after 2 days and after 6 days; for response vs control in vivo at 100 mg/kg: 100 mg/kg i.p.; for response vs control in vivo at 200 mg/kg: 200 mg/kg i.p.; for response vs control in vivo at 400 mg/kg: 400 mg/kg i.p. On the procedure: The antitumour activity for mice of the test material was evaluated by means of survival rate comparison, T/C (%), that is, 100 times the mean survival period of the groups injected with the test material divided by the mean survival period of the comparison groups which were not injected with the test material.
Further, for comparison, the following materials were also subjected to the same biological test: […]

`Nc1ccn([C@@H]2O[C@H](COP(=O)(O)O)[C@@H](O)[C@@H]2O)c(=O)n1` [Ara-C-5'-p.circle., 1-β-D-arabinofuranosylcytosine-5'-phosphate] displayed a response vs control in vivo at 100 mg/kg of 119%, a response vs control in vivo at 200 mg/kg of 131% and a response vs control in vivo at 400 mg/kg of 143%. Also, under “L-1210 in mice, conclusions in words”, the “Antileukemial effect on mice (in words)” value was “inferior to 1-β-D-arabinofuranosylcytosine in antileukemical effect on mice”.

On to `CC(=O)Nc1ccn([C@@H]2O[C@H](COP(=O)(O)O)[C@@H](O)[C@@H]2O)c(=O)n1` [N^4 -Acetyl-5'-PNa], for which the response vs control in vivo at 100 mg/kg stood at 101%, the response vs control in vivo at 200 mg/kg stood at 99% and the response vs control in vivo at 400 mg/kg was 99%.

`CC(=O)Nc1ccn([C@@H]2O[C@H](CO)[C@@H](O)[C@@H]2O)c(=O)n1` [N^4 -Acetyl-Ara-C] came in with a response vs control in vivo at 100 mg/kg of 125%, a response vs control in vivo at 200 mg/kg of 125% and a response vs control in vivo at 400 mg/kg of 125%.

Consider `CCCCC/C=C\C/C=C\C/C=C\C/C=C\CCCC(=O)Nc1ccn([C@@H]2O[C@H](COP(=O)(O)O)[C@@H](O)[C@@H]2O)c(=O)n1` [N^4 -Arachidonoyl-5'-PNa, N^4-arachidonoyl-1-β-D-arabinofuranosylcytosine-5'-phosphate monosodium], for which the response vs control in vivo at 100 mg/kg stood at 274%, the response vs control in vivo at 200 mg/kg was found to be 148% and the response vs control in vivo at 400 mg/kg is 115%.

For the compound `CCCCC/C=C\C/C=C\C/C=C\C/C=C\CCCC(=O)Nc1ccn([C@@H]2O[C@H](CO)[C@@H](O)[C@@H]2O)c(=O)n1` [N^4 -Arachidonoyl-Ara-C], the response vs control in vivo at 100 mg/kg stood at 269%, the response vs control in vivo at 200 mg/kg was found to be 137% and the response vs control in vivo at 400 mg/kg amounted to 114%.

For `CCCCCCCCCCCCCCCCCCCC(=O)Nc1ccn([C@@H]2O[C@H](COP(=O)(O)O)[C@@H](O)[C@@H]2O)c(=O)n1` [N^4 -Arachidoyl-5'-PNa, N^4-arachidoyl-1-β-D-arabinofuranosylcytosine-5'-phosphate monosodium], the response vs control in vivo at 100 mg/kg came to 320%, the response vs control in vivo at 200 mg/kg came out at 130% and the response vs control in vivo at 400 mg/kg was determined as 106%.

`CCCCCCCCCCCCCCCCCCCC(=O)Nc1ccn([C@@H]2O[C@H](CO)[C@@H](O)[C@@H]2O)c(=O)n1` [N^4 -Arachidoyl-Ara-C] yielded a response vs control in vivo at 100 mg/kg of 313%, a response vs control in vivo at 200 mg/kg of 128% and a response vs control in vivo at 400 mg/kg of 105%.

Regarding `CCCCCCCCCCCCCCCCCCCCCC(=O)Nc1ccn([C@@H]2O[C@H](COP(=O)(O)O)[C@@H](O)[C@@H]2O)c(=O)n1` [N^4 -Behenoyl-5'-PNa], the response vs control in vivo at 100 mg/kg was 316%, the response vs control in vivo at 200 mg/kg is 280% and the response vs control in vivo at 400 mg/kg turned out to be 270%.

In turn, `CCCCCCCCCCCCCCCCCCCCCC(=O)Nc1ccn([C@@H]2O[C@H](CO)[C@@H](O)[C@@H]2O)c(=O)n1` [N^4 -Behenoyl-Ara-C] showed a response vs control in vivo at 100 mg/kg of 313%, a response vs control in vivo at 200 mg/kg of 260% and a response vs control in vivo at 400 mg/kg of 256%.

Compound `CCCC(=O)Nc1ccn([C@@H]2O[C@H](COP(=O)(O)O)[C@@H](O)[C@@H]2O)c(=O)n1` [N^4 -Butyryl-5'-PNa] came in with a response vs control in vivo at 100 mg/kg of 105%, a response vs control in vivo at 200 mg/kg of 102% and a response vs control in vivo at 400 mg/kg of 100%.

For `CCCC(=O)Nc1ccn([C@@H]2O[C@H](CO)[C@@H](O)[C@@H]2O)c(=O)n1` [N^4 -Butyryl-Ara-C], the response vs control in vivo at 100 mg/kg was 131%, the response vs control in vivo at 200 mg/kg was 131% and the response vs control in vivo at 400 mg/kg came out at 139%.

`CCCCCC(=O)Nc1ccn([C@@H]2O[C@H](COP(=O)(O)O)[C@@H](O)[C@@H]2O)c(=O)n1` [N^4 -Caproyl-5'-PNa] showed a response vs control in vivo at 100 mg/kg of 103%, a response vs control in vivo at 200 mg/kg of 105% and a response vs control in vivo at 400 mg/kg of 101%.

`CCCCCC(=O)Nc1ccn([C@@H]2O[C@H](CO)[C@@H](O)[C@@H]2O)c(=O)n1` [N^4 -Caproyl-Ara-C] registered a response vs control in vivo at 100 mg/kg of 125%, a response vs control in vivo at 200 mg/kg of 133% and a response vs control in vivo at 400 mg/kg of 150%.

Compound `CCCCCCCCCC(=O)Nc1ccn([C@@H]2O[C@H](COP(=O)(O)O)[C@@H](O)[C@@H]2O)c(=O)n1` [N^4 -Capryl-5'-PNa] displayed a response vs control in vivo at 100 mg/kg of 103%, a response vs control in vivo at 200 mg/kg of 102% and a response vs control in vivo at 400 mg/kg of 98%.

Turning to `CCCCCCCCCC(=O)Nc1ccn([C@@H]2O[C@H](CO)[C@@H](O)[C@@H]2O)c(=O)n1` [N^4 -Capryl-Ara-C], the response vs control in vivo at 100 mg/kg was 159%, the response vs control in vivo at 200 mg/kg stood at 188% and the response vs control in vivo at 400 mg/kg was more than 284%.

In turn, `CCCCCCCC(=O)Nc1ccn([C@@H]2O[C@H](COP(=O)(O)O)[C@@H](O)[C@@H]2O)c(=O)n1` [N^4 -Caprylyl-5'-PNa] gave a response vs control in vivo at 100 mg/kg of 103%, a response vs control in vivo at 200 mg/kg of 101% and a response vs control in vivo at 400 mg/kg of 99%.

`CCCCCCCC(=O)Nc1ccn([C@@H]2O[C@H](CO)[C@@H](O)[C@@H]2O)c(=O)n1` [N^4 -Caprylyl-Ara-C] returned a response vs control in vivo at 100 mg/kg of 123%, a response vs control in vivo at 200 mg/kg of 127% and a response vs control in vivo at 400 mg/kg of 163%.

In turn, `CCCCCCCCCCCC(=O)Nc1ccn([C@@H]2O[C@H](COP(=O)(O)O)[C@@H](O)[C@@H]2O)c(=O)n1` [N^4 -Lauroyl-5'-PNa] displayed a response vs control in vivo at 100 mg/kg of 110%, a response vs control in vivo at 200 mg/kg of 115% and a response vs control in vivo at 400 mg/kg of 115%.

`CCCCC/C=C\C/C=C\CCCCCCCC(=O)Nc1ccn([C@@H]2O[C@H](COP(=O)(O)O)[C@@H](O)[C@@H]2O)c(=O)n1` [N^4 -Linoleoyl-5'-PNa] displayed a response vs control in vivo at 100 mg/kg of 275%, a response vs control in vivo at 200 mg/kg of 145% and a response vs control in vivo at 400 mg/kg of 120%.

As to `CCCCC/C=C\C/C=C\CCCCCCCC(=O)Nc1ccn([C@@H]2O[C@H](CO)[C@@H](O)[C@@H]2O)c(=O)n1` [N^4 -Linoleoyl-Ara-C], the response vs control in vivo at 100 mg/kg worked out at 268%, the response vs control in vivo at 200 mg/kg was 140% and the response vs control in vivo at 400 mg/kg amounted to 112%.

Regarding `CCCCCCCCCCCCCC(=O)Nc1ccn([C@@H]2O[C@H](COP(=O)(O)O)[C@@H](O)[C@@H]2O)c(=O)n1` [N^4 -Myristoyl-5'-PNa, N^4 -Myristoyl-1-β-D-arabinofuranosylcytosine-5'-phosphate monosodium], the response vs control in vivo at 100 mg/kg is more than 219%, the response vs control in vivo at 200 mg/kg was more than 261% and the response vs control in vivo at 400 mg/kg came to 93%.

On to `CCCCCCCCCCCCCC(=O)Nc1ccn([C@@H]2O[C@H](CO)[C@@H](O)[C@@H]2O)c(=O)n1` [N^4 -Myristoyl-Ara-C, N^4-myristoyl-1-β-D-arabinofuranosylcytosine], for which the response vs control in vivo at 100 mg/kg came to 206%, the response vs control in vivo at 200 mg/kg came out at 127% and the response vs control in vivo at 400 mg/kg was 90%.

Values taken from patent US4086417A, “Cytidine nucleotide derivatives” (Asahi Kasei Kogyo Kabushiki Kaisha, priority 1974, dated 1978).
